Reference: PMC8414802, “Hair Cell Generation in Cochlear Culture Models Mediated by Novel γ-Secretase Inhibitors” (Frontiers in Cell and Developmental Biology, 2021)
pIC50: −log10 of the molar value. Read-outs that look alike come from different tables or passages of the source.

Legend:
[1] = test system: hair cell genes Atoh1, Pou4f3, Myo7a in OC explants; test: Hair cell gene expression in organ of Corti explants (RT-PCR); assay type: cell-based, mouse; details: 4 days, vs DMSO
Procedure: OC explants were isolated from postnatal day 2 (P2) Wistar rats, P0-P2 mice (Lgr5-GFP or Atoh1-nGFP mice). Dissection of the cochlea under a stereomicroscope (Nikon SMZ800, Japan) allowed OC separation from stria vascularis and modiolus, and the sensory epithelium was plated with hair cells facing up on Cell-Tak (Corning, United States)-coated transwell-clear inserts (6-well format, 0.4 μm pore, Corning, United States). Dissection medium was exchanged for 1.5 ml full otic medium supplemented with 10% FBS (Invitrogen) and 0.01% Ampicillin (Sigma), added under the insert membrane, maintaining the OC under a thin film of medium during culture at 37°C. 5-ethyl-2′-deoxyuridine (EdU, 5 μM, Life Technologies) was added directly in the medium when indicated.
Concentrations of small molecule GSIs {LY411575, CPD3, CPD8, DAPT (N-[N-(3,5-Difluorophenacetyl)-L-alanyl]-S-phenylglycine t-butyl ester; Sigma)} were prepared in DMSO and are indicated in Figure Legends and Results. DMSO included as Control. Treatment groups were assigned randomly.
(§1) Cells or tissue were lysed using RLT Lysis Buffer (Qiagen) and high purity RNA was prepared on the MagNA Pure instrument using MagNA Pure 96 Cellular RNA LV Kit (Roche). Reagents from Thermo Fisher were used for cDNA synthesis by reverse transcription using random hexamers. Resulting cDNA was RNAse H treated and amplified by TaqMan GEX mastermix and PCR primers and probes for human ATOH1 (Hs00944192_s1) and TBP (Hs00427620_m1), mouse Tbp (Mm00446971_m1), Atoh1 (Mm00476035_s1), Hes5 (Mm00439311_g1), Pouf4s (Mm04213795_s1), and Myo7a (Mm01274015_m1) on the Applied Biosystems QuantStudio 7 Flex Real-Time PCR System. Normalized to Tbp, relative gene expression fold-change was quantified and compared between experimental and control conditions by ΔΔCt calculation.
FIGURE 2 GSI-mediated induction of hair cell gene expression and de novo generation of hair cells in the neonatal cochlear sensory epithelium. (A) Gene expression changes of Atoh1, Pou4f3, and Myo7a in response to Notch pathway inhibition by CPD3 (solid lines, triangles) and CPD8 (dashed lines, open square) in otic spheres. Gene expression is reported as fold-change relative to carrier control-treated (DMSO, 0.05%). (n = 9–12). […] (B) Gene expression analysis for the hair cell genes Atoh-1, Myo7a, and Pou4f3. DMSO control n = 13, CPD3 n = 12, LY411575 n = 9, DAPT n = 6 from 2–4 independent experiments. OC explants were cultured for 4 days with/without GSI prior to lysis and analysis. One-way ANOVA with Dunnett’s multiple comparison test, each condition compared to DMSO control. (*p < 0.05, **p < 0.005, ***p < 0.001). (C) Cell counts of Atoh1 positive HCs (OHC left, IHC right) in the mouse cochlear sensory epithelium in the mid-apex region after 7 days in culture with different γ-secretase inhibitors. One-way ANOVA Dunnett’s multiple comparison test, each condition compared to DMSO control. (*p < 0.05; n = 3–5 independent experiments). (D) Quantification of Pou4f3 positive HCs (OHC left, IHC right) in the cochlear sensory epithelium from P2 rats in the apical domain after 8 days in culture with different γ-secretase inhibitors. One-way ANOVA with Dunnett’s multiple comparison test, each condition compared to DMSO control (*p < 0.05, n = 3). Representative immunohistological images of the apical domain after 8 days incubation (inset). scale bar = 20 μm. (E) Quantification of Pou4f3 positive OHCs in the apex, middle and basal domain of organ of Corti explants from rats after 4 days of CPD3 treatment compared to DMSO (*p < 0.05, unpaired t-test) n = 4–6 explants from 2 independent experiments.

[2] = test system: Notch-dependent expression of ATOH1 in LS174T cells; test: ATOH1 expression induction in LS174T cell line by GSIs (RT-PCR); assay type: cell-based, human; details: GSI treatment 72 h, fold-change vs 0.05% DMSO, read-out: IC50 for ATOH1 expression upregulation
Procedure: The human colon cancer cell line LS174T (CL-188; ATCC) was cultured without antibiotics in 1% FBS/Eagle’s Minimum Essential Medium (MEM; Thermo Fisher) ([Asakura et al., 2018]). […]
as §1
Statistical analysis was performed with GraphPad Prism software (Prism9; GraphPad Software Inc., San Diego, CA, United States). For explant cultures, when the number of explants/replicates was not sufficient to test for Gaussian distribution normal distribution of the data was assumed based on previous experiments ([Perny et al., 2017]; [Erni et al., 2019]). Alternatively, the distribution of the datasets was tested by D’Agostino and Pearson normality test. Unpaired t-tests were used to compare parametric data sets of two groups. Welch’s correction was applied if variances were not equal. For non-parametric data, the Mann–Whitney test was adopted. One-way ANOVA was used to determine the difference in means among multiple groups and multiple comparison correction was tested. Graphs indicate the single data point, the mean values ± standard deviation. IC50s were calculated by non-linear regression of data normalized by percent change from controls to compare multiple experiments. Differences in IC50s from Best fit data were compared by Least Squares (F-test; Extra sum of squares; alpha = 0.05).
To measure the relative potency between different GSIs, a pharmacological assay was initially used to identify the dose ranges effective to induce ATOH1 expression. The cell line LS174T, a human colorectal adenocarcinoma, was used to evaluate Notch-dependent expression of ATOH1 ([Kazanjian et al., 2010]). Two compounds from Eli Lilly, designated LY3056480 (CPD3) and LY3056359 (CPD8) (Figures 1A,B) were compared with the commercially available GSIs LY411575 and DAPT. […] The intermediate potency of CPD3 and 8 was likely to be adequate to achieve levels above the IC50 after dilution into perilymph in the inner ear.

| pIC50 ([2]; Homo sapiens) | pIC50 [2] | Compound | Atoh1 expression ([1]; 1 μM) [fold] | Myo7a expression ([1]; 1 μM) [fold] | Pou4f3 expression ([1]; 1 μM) [fold] | Atoh1 expression ([1]; 5 μM) [fold] | Myo7a expression ([1]; 5 μM) [fold] | Pou4f3 expression ([1]; 5 μM) [fold] |
| --- | --- | --- | --- | --- | --- | --- | --- | --- |
| 7.76 | – | COc1ccc2c(c1)N1CCC(C)(C)C1=CC(=O)[C@H]2NC(=O)[C@H](C)NC(=O)CCC(F)(F)F [CPD3] | 3.7 ± 0.54 | 1.73 ± 0.33 | 2.04 ± 0.35 | – | – | – |
| – | 9.40 | C[C@H](NC(=O)[C@@H](O)c1cc(F)cc(F)c1)C(=O)N[C@@H]1C(=O)N(C)c2ccccc2-c2ccccc21 [LY411575] | – | – | – | 4.34 ± 0.82 | 1.42 ± 0.31 | 1.46 ± 0.26 |
